Data as given in PMC3200564 (European journal of nuclear medicine and molecular imaging, 2011).

Experiments:
TEM8 (293-TEM8 cells) = TEM8 (293-TEM8 cells) (Homo sapiens, UniProt Q9H6X2); experiment: biochemical; format: binding
[1] = molecular target: T1, extracellular vWA domain of TEM8 (Homo sapiens, UniProt Q9H6X2); experiment: biochemical; format: binding
T1 sequence (Q9H6X2 44-215 limits assumed): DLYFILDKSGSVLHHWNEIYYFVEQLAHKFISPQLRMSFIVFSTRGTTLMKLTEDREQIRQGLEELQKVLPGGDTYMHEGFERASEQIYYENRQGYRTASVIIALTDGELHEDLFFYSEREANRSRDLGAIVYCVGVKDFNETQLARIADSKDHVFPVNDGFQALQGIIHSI

TEM8 (293-TEM8 cells), sequence (Q9H6X2 33-564): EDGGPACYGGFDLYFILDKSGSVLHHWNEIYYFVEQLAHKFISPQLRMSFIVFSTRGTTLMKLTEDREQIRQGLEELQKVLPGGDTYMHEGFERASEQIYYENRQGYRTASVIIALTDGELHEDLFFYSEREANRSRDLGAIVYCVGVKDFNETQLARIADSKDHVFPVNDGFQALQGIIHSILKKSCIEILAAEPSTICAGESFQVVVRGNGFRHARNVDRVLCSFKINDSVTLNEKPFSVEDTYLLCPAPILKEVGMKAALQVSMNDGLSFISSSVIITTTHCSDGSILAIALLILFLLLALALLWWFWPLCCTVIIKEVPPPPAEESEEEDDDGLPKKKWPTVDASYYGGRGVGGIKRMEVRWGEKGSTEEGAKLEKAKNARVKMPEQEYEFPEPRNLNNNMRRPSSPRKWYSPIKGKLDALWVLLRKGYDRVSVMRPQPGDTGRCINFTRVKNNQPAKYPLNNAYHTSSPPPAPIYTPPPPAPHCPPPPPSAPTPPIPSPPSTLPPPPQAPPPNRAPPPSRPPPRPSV

CC[C@H](C)[C@H](NC(=O)[C@H](Cc1ccc(O)cc1)NC(=O)[C@H](CC(C)C)NC(=O)[C@@H]1CCCN1C(=O)[C@H](CC(C)C)NC(=O)[C@H](CCCNC(=N)N)NC(=O)[C@H](CC(=O)O)NC(=O)[C@H](CC(N)=O)NC(=O)[C@H](Cc1ccc(O)cc1)NC(=O)[C@@H](N)CCCCN)C(=O)N[C@@H](CO)C(=O)N[C@@H](CC(N)=O)C(=O)N1CCC[C@H]1C(=O)O [QQM, KYNDRLPLYISNP]
IC50 (TEM8 (293-TEM8 cells)): 0.033 µM
IC50 [1]: 0.304 µM
